We go through 1 compound from patent US6878381B2, “Resorcinol composition” (Pfizer, Inc, priority 1999, dated 2005).

For one assay, the target named is T1, human tyrosinase (Homo sapiens, UniProt P14679).
T1 construct: endogenous in cells; host or cells: SKMEL 188 human melanoma cell line (lysate)
T1 sequence (P14679 19-529): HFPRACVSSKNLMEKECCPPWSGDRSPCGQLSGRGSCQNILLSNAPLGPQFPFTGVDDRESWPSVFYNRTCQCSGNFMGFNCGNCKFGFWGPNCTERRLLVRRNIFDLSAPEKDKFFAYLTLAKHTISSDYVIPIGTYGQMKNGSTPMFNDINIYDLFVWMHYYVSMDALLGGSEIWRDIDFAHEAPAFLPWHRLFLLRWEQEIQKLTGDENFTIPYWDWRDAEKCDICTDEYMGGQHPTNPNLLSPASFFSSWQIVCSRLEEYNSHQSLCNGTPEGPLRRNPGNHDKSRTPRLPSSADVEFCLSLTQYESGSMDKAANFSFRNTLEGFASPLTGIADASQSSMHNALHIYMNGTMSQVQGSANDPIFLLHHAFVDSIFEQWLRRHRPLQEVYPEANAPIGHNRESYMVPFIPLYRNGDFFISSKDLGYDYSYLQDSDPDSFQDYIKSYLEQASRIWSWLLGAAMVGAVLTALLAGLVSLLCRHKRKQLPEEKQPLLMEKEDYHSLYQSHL
Briefly: Tyrosinase (DOPA oxidase) assay using cell lysate. It is filed as biochemical. As to conditions: SKMEL 188 human melanoma cell lysate; L-DOPA 100 μg/ml; 8 hr incubation; read at 405 nm. How it is done: 1. Tyrosinase (DOPA Oxidase) Assay Using Cell Lysate:
Human melanoma cell line, SKMEL 188 (licensed from Memorial Sloan-Kettering), is used in the cell lysate assay and the screen. In the assay, compounds and L-dihydroxyphenylalanine (L-DOPA) (100 μg/ml) are incubated with the cell lysates containing human tyrosinase for 8 hr before the plates are read at 405 nm. Potency of the compounds in DOPA oxidase assay is correlated very well with that in tyrosine hydroxylase assay using ^3H-tyrosine as a substrate.

Assay [1] relates to guinea pig skin pigmentation. The assay is described as follows: In vivo study: skin depigmentation in black or dark brown guinea pigs. As to conditions: 5% solution in ethanol:propylene glycol 70:30, topical, twice daily, 5 days per week for 4-8 weeks. From the text:
Black or dark brown guinea pigs with homogeneous skin color can be used in this study. A solution of the test compound (5% in ethanol:propylene glycol, 70:30) and the vehicle control are applied to the animals twice daily, 5 days per week for 4-8 weeks.

Each structure is given as a SMILES string.

In general, IC50 refers to the concentration that inhibits the measured activity by half. Read a low IC50 as greater potency. Consider `Oc1ccc(C2CCC(O)CC2)c(O)c1` (centres unmarked) [4-(2,4-dihydroxyphenyl)cyclohexanol], for which, on human tyrosinase, the half-inhibitory concentration (IC50) worked out at 200 nM. Moreover, the depigmentation of skin entry in assay [1] is recorded as “depigmentation of skin”.
